Data from patent US8911705B2, “Diagnostic substance and method for the analysis of metabolism processes in the brain” (Leibniz-Institut fuer Neurobiologie Stiftung des …, priority 2005, dated 2014).

Assays:
brain = details: cited from earlier work
[1] = tested on: brain of rat after focal cerebral ischemia
From the text: Thallium is a potassium tracer and can detect changes in potassium metabolism, as occur, e.g., in brain infarcts, brain tumors, or degenerative diseases.
Shown are frontal sections in the plane of the anterior commissure (A, D) and images of the same sections (B, E).
The thallium is taken up essentially by the sodium-potassium pump and transport systems regulated by it and is thus energy-dependent. […] Scale bar in A: 500 μm, in B: 50 μm, in C: 25 μm, in D: 10 μm, in E: 25 μm and in F: 100 μm.

experimental animals = details: high thallium acetate doses needed for the method; animals sacrificed 15 minutes after administration; cited from earlier work

Row | Compound | cerebral uptake (brain) | decomposition in the brain (brain) | staining intensity (thallium) in infarct core ([1]; 15 minutes after focal cerebral ischemia (hyperacute stage), infarct core) | staining intensity (thallium) in zone surrounding infarct core ([1]; 15 minutes after focal cerebral ischemia, zone surrounding core vs contralateral side) | differences in thallium distribution ipsilateral and contralateral to the occluded vessel ([1]; 7 days after focal cerebral ischemia (late time point)) | thallium staining of astrocytes in the infarct core ([1]; hyperacute stage of cerebral ischemia, astrocytes) | thallium detection in neurons of the infarct core ([1]; hyperacute stage of cerebral ischemia, neurons) | toxicity of the thallium dose used (experimental animals) | retention in the brain (brain)
1 | CCN(CC)C(=S)[S][201Tl] [Tl-DDC, thallium-201 diethyldithiocarbamate] | good cerebral uptake | decomposes spontaneously in the brain | clearly reduced staining intensity | clearly lower than in the undamaged contralateral side | less pronounced | intensively stained | cannot be detected | – | –
2 | CC(=O)[O-].[Tl+] [thallium acetate] | – | – | – | – | – | – | – | deadly | –
3 | technetium-99m-diethyldithiocarbamate [^99 mTc-DDC] | good cerebral uptake | essentially lower rate of decomposition in the brain | – | – | – | – | – | – | retained there to a lesser extent
